{
  "source": "patent US20250206779A1",
  "about": "“ANGIOTENSIN-(1-9) ANALOGUE BASED ON D AMINO ACIDS, PHARMACEUTICAL COMPOSITIONS AND USES THEREOF” (UNIVERSIDAD DE CHILE, priority 2021, published 2025)",
  "key": {"[1]": {"tested_on": "neonatal rat ventricular myocytes (NRVM)", "assay": "Cardiomyocyte death by simulated ischemia/reperfusion (LDH release, procaspase 3 cleavage)", "type": "cell-based", "protocol": "Neonatal rat ventricular myocytes (NRVM) were isolated from one- to three-day-old Sprague Dawley rats. Cells were pre-plated to discard non-myocyte cells and the myocyte-enriched fraction was plated on gelatin-precoated 35 mm dishes and grown in DMEM/M199 (4:1) medium with 10% (w/v) fetal bovine serum (FBS) and […] bromodeoxyuridine for 24 h before the experiments. Ischemia was induced by incubating the cardiomyocytes in ischemia-mimicking solution (ischemic medium) containing HEPES 5 mM, 2-deoxy-D-glucose 10 mM, NaCl 139 mM, KCl 12 mM, MgCl2 0.5 mM, CaCl2 1.3 mM and lactic acid 20 mM, pH 6.2, under O2<1%, 5% CO2 and 95% nitrogen at 37° C. for 8 h. Subsequently for simulated reperfusion, ischemia-mimicking solution was replaced by DMEM/M199 (4:1) containing 10% (w/v) FBS and NRVM were incubated for 16 h in 95% air and 5% CO2. Parallel NRVM were assigned to a control group which was exposed to normoxic conditions in a control medium containing (in mM) 5 HEPES 5 mM, D-glucose 23 mM, NaCl 139 mM, KCl 4.7 mM, MgCl2 0.5 mM, CaCl2 1.3 mM, pH 7.4 under 95% air and 5% CO2 for 8 h. Then, control medium was replaced with DMEM/M199 (4:1) containing 10% (w/v) FBS under 95% air and 5% CO2 for 16 h.\nFor the evaluation of necrosis, the activity of lactate dehydrogenase (LDH) was measured spectrophotometrically at 490 nm in samples of the culture medium after normoxia (control) and sl/R both at 8 h and 16 h, using the kit CytoTox 96® Non-Radioactive Cytotoxicity Assay, Promega (Corp., Madison, WI, USA), according to the manufacturer's instructions. Apoptosis was evaluated by measuring procaspase 3 cleavage to caspase 3 by western blotting."}, "[2]": {"tested_on": "spontaneously hypertensive rats (SHR)", "assay": "β-MHC protein level in left ventricle of SHR (cardiac hypertrophy)", "type": "in vivo, rat", "conditions": "SHR, 1,200 ng/kg/min, 14 days, left ventricle western blot", "protocol": "(§1) Experimental animal model. All procedures were performed in accordance with the Guide for the Care and Use of Laboratory Animals published by the U.S. National Institutes of Health (NIH Publication 85 23, 1985) and approved by our Institutional Bioethics Committee. The animals were housed under the continuous professional monitoring of the Medical Veterinary staff in the animal facility of the Pontificia Universidad Católica de Chile, under the following conditions: 12-h light-dark cycle; 21° C. ambient temperature; 50% humidity; adequate ventilation; noise-free environment; and food and water ad libitum. Male spontaneously hypertensive rats (SHR, age 12 weeks) and normotensive Wistar Kyoto rats (WKY, 12 weeks age) were used. […] Systolic blood pressure (SBP), diastolic blood pressure (DBP) and body weight (BW) were measured at the end of the treatment period and the animals were then sacrificed.\nMeasurement of β-MHC protein level to assess cardiac hypertrophy. β-MHC protein levels were determined by Western blotting. […] Digital images obtained from the photographic films were analyzed by densitometry using Image J software (NIH, USA). […]"}, "[3]": {"tested_on": "spontaneously hypertensive rats (SHR)", "assay": "Cardiac fibrosis in SHR, picrosirius red staining", "type": "in vivo, rat", "conditions": "SHR, 1,200 ng/kg/min, 14 days", "protocol": "as §1\nEvaluation of cardiac fibrosis. […] In hypertense SHR increased picrosirius red staining was detected in the hearts, indicating the presence of interstitial collagen, a marker of cardiac fibrosis."}},
  "note": "Where a SMILES comes first, the peptide text is derived from it. [ ]: non-standard residue; d: D form.",
  "data": [
    {"smiles": "CC[C@@H](C)[C@@H](NC(=O)[C@@H](Cc1c[nH]cn1)NC(=O)[C@H]1CCCN1C(=O)[C@@H](Cc1ccccc1)NC(=O)[C@H](N)Cc1c[nH]cn1)C(=O)N[C@H](Cc1ccc(O)cc1)C(=O)N[C@@H](C(=O)N[C@H](CCCNC(=N)N)C(=O)N[C@H](CC(=O)O)C(=O)O)C(C)C", "note": "[retro-inverse angiotensin-(1-9), NH2-^DH^DF^DP^DH^DI^DY^DV^DR^DD-COOH] (H-[dH][dF][dP][dH][dI][dY][dV][dR][dD]-OH)", "values": [
      {"measurement": "cardiomyocyte apoptosis induced by ischemia reperfusion (procaspase 3 cleavage)", "setting": "[1]; 10 μM peptide, western blotting", "result": "inhibited"},
      {"measurement": "cardiomyocyte necrosis induced by ischemia reperfusion (LDH release)", "setting": "[1]; 1 and 10 μM peptide", "result": "Significative necrosis inhibition"},
      {"measurement": "cardiomyocyte necrosis induced by ischemia reperfusion (LDH release)", "setting": "[1]; simulated ischemia 8 h / reperfusion 16 h", "result": "inhibited in a dose response manner"},
      {"measurement": "increase in β-MHC induced by hypertension", "setting": "[2]", "result": "reversed the increase"},
      {"measurement": "accumulation of collagen in cardiac tissue", "setting": "[3]", "result": "completely revert"}
    ]}
  ]
}
